# Numbers after ± are expanded uncertainties.
# Tests used:
# [1] = Molar enthalpy of transition or fusion; settings: Crystal; DSC
# [2] = for vapor or sublimation pressure: Closed cell (Static) method; for Normal melting temperature: DTA
structure (smiles),measurement,setting,value
COC(=O)c1ccc(Br)cc1 [methyl 4-bromobenzoate],Molar enthalpy of transition or fusion,[1],6.17 ± 0.167 kcal/mol
same,vapor or sublimation pressure,"[2]; 293.31 K, Crystal",0.00042 ± 0.0001 kPa
same,vapor or sublimation pressure,"[2]; 295.32 K, Crystal",0.00054 ± 0.0001 kPa
same,vapor or sublimation pressure,"[2]; 297.3 K, Crystal",0.00068 ± 0.00011 kPa
same,vapor or sublimation pressure,"[2]; 299.26 K, Crystal",0.00087 ± 0.00011 kPa
same,vapor or sublimation pressure,"[2]; 301.24 K, Crystal",0.00109 ± 0.00011 kPa
same,vapor or sublimation pressure,"[2]; 303.23 K, Crystal",0.00139 ± 0.00012 kPa
same,vapor or sublimation pressure,"[2]; 305.21 K, Crystal",0.00173 ± 0.00012 kPa
same,vapor or sublimation pressure,"[2]; 307.22 K, Crystal",0.0022 ± 0.00014 kPa
same,vapor or sublimation pressure,"[2]; 309.17 K, Crystal",0.00277 ± 0.00015 kPa
same,vapor or sublimation pressure,"[2]; 311.2 K, Crystal",0.00345 ± 0.00017 kPa
same,vapor or sublimation pressure,"[2]; 313.13 K, Crystal",0.00422 ± 0.0002 kPa
same,vapor or sublimation pressure,"[2]; 315.14 K, Crystal",0.00523 ± 0.00023 kPa
same,vapor or sublimation pressure,"[2]; 317.13 K, Crystal",0.00651 ± 0.00028 kPa
same,vapor or sublimation pressure,"[2]; 319.04 K, Crystal",0.00797 ± 0.00033 kPa
same,vapor or sublimation pressure,"[2]; 321.09 K, Crystal",0.00985 ± 0.0004 kPa
same,vapor or sublimation pressure,"[2]; 323.08 K, Crystal",0.0121 ± 0.00049 kPa
same,vapor or sublimation pressure,"[2]; 325.13 K, Crystal",0.01501 ± 0.00055 kPa
same,vapor or sublimation pressure,"[2]; 327 K, Crystal",0.01789 ± 0.00059 kPa
same,vapor or sublimation pressure,"[2]; 329.05 K, Crystal",0.02213 ± 0.00066 kPa
same,vapor or sublimation pressure,"[2]; 331.03 K, Crystal",0.02686 ± 0.00073 kPa
same,vapor or sublimation pressure,"[2]; 333 K, Crystal",0.0324 ± 0.00081 kPa
same,vapor or sublimation pressure,"[2]; 335.03 K, Crystal",0.03924 ± 0.00092 kPa
same,vapor or sublimation pressure,"[2]; 336.96 K, Crystal",0.04713 ± 0.001 kPa
same,vapor or sublimation pressure,"[2]; 338.94 K, Crystal",0.05664 ± 0.0012 kPa
same,vapor or sublimation pressure,"[2]; 340.91 K, Crystal",0.0673 ± 0.0014 kPa
same,vapor or sublimation pressure,"[2]; 342.9 K, Crystal",0.0811 ± 0.0016 kPa
same,vapor or sublimation pressure,"[2]; 344.79 K, Crystal",0.09642 ± 0.0018 kPa
same,vapor or sublimation pressure,"[2]; 346.85 K, Crystal",0.1156 ± 0.0021 kPa
same,vapor or sublimation pressure,"[2]; 348.81 K, Crystal",0.1363 ± 0.0021 kPa
same,vapor or sublimation pressure,"[2]; 354.73 K, Liquid",0.2096 ± 0.0027 kPa
same,vapor or sublimation pressure,"[2]; 356.68 K, Liquid",0.233 ± 0.0029 kPa
same,vapor or sublimation pressure,"[2]; 358.69 K, Liquid",0.259 ± 0.0032 kPa
same,vapor or sublimation pressure,"[2]; 360.68 K, Liquid",0.2932 ± 0.0034 kPa
same,vapor or sublimation pressure,"[2]; 362.63 K, Liquid",0.3282 ± 0.0037 kPa
same,vapor or sublimation pressure,"[2]; 364.63 K, Liquid",0.365 ± 0.0041 kPa
same,vapor or sublimation pressure,"[2]; 366.59 K, Liquid",0.4053 ± 0.0044 kPa
same,vapor or sublimation pressure,"[2]; 368.56 K, Liquid",0.4511 ± 0.0048 kPa
same,vapor or sublimation pressure,"[2]; 370.53 K, Liquid",0.5029 ± 0.0053 kPa
same,vapor or sublimation pressure,"[2]; 372.52 K, Liquid",0.5539 ± 0.0057 kPa
same,vapor or sublimation pressure,"[2]; 374.48 K, Liquid",0.6187 ± 0.0062 kPa
same,vapor or sublimation pressure,"[2]; 376.42 K, Liquid",0.6825 ± 0.0068 kPa
same,vapor or sublimation pressure,"[2]; 378.43 K, Liquid",0.752 ± 0.0074 kPa
same,Normal melting temperature,[2]; Crystal,78.07 ± 0.42 °C
COC(=O)c1ccc(I)cc1 [methyl p-iodobenzoate],Molar enthalpy of transition or fusion,[1],7.1 ± 0.191 kcal/mol
same,vapor or sublimation pressure,"[2]; 313.11 K, Crystal",0.00044 ± 0.00011 kPa
same,vapor or sublimation pressure,"[2]; 315.03 K, Crystal",0.00054 ± 0.00011 kPa
same,vapor or sublimation pressure,"[2]; 317.12 K, Crystal",0.00069 ± 0.00011 kPa
same,vapor or sublimation pressure,"[2]; 319.05 K, Crystal",0.00087 ± 0.00011 kPa
same,vapor or sublimation pressure,"[2]; 321.04 K, Crystal",0.00108 ± 0.00012 kPa
same,vapor or sublimation pressure,"[2]; 323.04 K, Crystal",0.00134 ± 0.00012 kPa
same,vapor or sublimation pressure,"[2]; 325 K, Crystal",0.00165 ± 0.00013 kPa
same,vapor or sublimation pressure,"[2]; 326.97 K, Crystal",0.00206 ± 0.00014 kPa
same,vapor or sublimation pressure,"[2]; 329 K, Crystal",0.00253 ± 0.00015 kPa
same,vapor or sublimation pressure,"[2]; 330.93 K, Crystal",0.00315 ± 0.00017 kPa
same,vapor or sublimation pressure,"[2]; 332.89 K, Crystal",0.00387 ± 0.00019 kPa
same,vapor or sublimation pressure,"[2]; 334.91 K, Crystal",0.00478 ± 0.00022 kPa
same,vapor or sublimation pressure,"[2]; 336.94 K, Crystal",0.00583 ± 0.00026 kPa
same,vapor or sublimation pressure,"[2]; 342.8 K, Crystal",0.01054 ± 0.00043 kPa
same,vapor or sublimation pressure,"[2]; 346.74 K, Crystal",0.01524 ± 0.00055 kPa
same,vapor or sublimation pressure,"[2]; 350.73 K, Crystal",0.02236 ± 0.00066 kPa
same,vapor or sublimation pressure,"[2]; 352.75 K, Crystal",0.02707 ± 0.00073 kPa
same,vapor or sublimation pressure,"[2]; 356.66 K, Crystal",0.03886 ± 0.00091 kPa
same,vapor or sublimation pressure,"[2]; 358.67 K, Crystal",0.04652 ± 0.001 kPa
same,vapor or sublimation pressure,"[2]; 360.6 K, Crystal",0.05489 ± 0.0012 kPa
same,vapor or sublimation pressure,"[2]; 362.63 K, Crystal",0.06557 ± 0.0013 kPa
same,vapor or sublimation pressure,"[2]; 364.61 K, Crystal",0.07801 ± 0.0015 kPa
same,vapor or sublimation pressure,"[2]; 366.58 K, Crystal",0.09145 ± 0.0017 kPa
same,vapor or sublimation pressure,"[2]; 368.45 K, Crystal",0.1085 ± 0.002 kPa
same,vapor or sublimation pressure,"[2]; 370.54 K, Crystal",0.127 ± 0.0023 kPa
same,vapor or sublimation pressure,"[2]; 372.47 K, Crystal",0.1479 ± 0.0022 kPa
same,vapor or sublimation pressure,"[2]; 374.46 K, Crystal",0.1734 ± 0.0024 kPa
same,vapor or sublimation pressure,"[2]; 376.44 K, Crystal",0.2047 ± 0.0027 kPa
same,vapor or sublimation pressure,"[2]; 378.41 K, Crystal",0.2394 ± 0.003 kPa
same,vapor or sublimation pressure,"[2]; 380.38 K, Crystal",0.2786 ± 0.0033 kPa
same,vapor or sublimation pressure,"[2]; 386.32 K, Liquid",0.4305 ± 0.0047 kPa
same,vapor or sublimation pressure,"[2]; 388.2 K, Liquid",0.4717 ± 0.005 kPa
same,vapor or sublimation pressure,"[2]; 390.26 K, Liquid",0.5231 ± 0.0054 kPa
same,vapor or sublimation pressure,"[2]; 391.24 K, Liquid",0.5484 ± 0.0057 kPa
same,vapor or sublimation pressure,"[2]; 392.21 K, Liquid",0.5758 ± 0.0059 kPa
same,vapor or sublimation pressure,"[2]; 394.18 K, Liquid",0.6343 ± 0.0064 kPa
same,vapor or sublimation pressure,"[2]; 396.15 K, Liquid",0.698 ± 0.0069 kPa
same,vapor or sublimation pressure,"[2]; 398.14 K, Liquid",0.7666 ± 0.0075 kPa
same,vapor or sublimation pressure,"[2]; 400.1 K, Liquid",0.8418 ± 0.0082 kPa
same,vapor or sublimation pressure,"[2]; 402.07 K, Liquid",0.9228 ± 0.0089 kPa
same,vapor or sublimation pressure,"[2]; 404.04 K, Liquid",1.011 ± 0.01 kPa
same,vapor or sublimation pressure,"[2]; 406.02 K, Liquid",1.106 ± 0.011 kPa
same,Normal melting temperature,[2]; Crystal,113.52 ± 0.39 °C

# Source: the NIST ThermoML archive (doi:10.1016/j.jct.2012.07.027)
